Source: US20250099433A1, “COMPOSITION AND METHOD FOR TREATMENT OF GRAM NEGATIVE BACTERIAL INFECTION” (The Research Foundation for the State University of New York, priority 2021, published 2025)
≈ marks a conversion by molar mass, not a printed value. Where “and” joins values, the source holds several entries; their conditions need not be identical. Equal values may be shown once. Entries after “also recorded” stand apart in the source; their conditions may differ. Read-outs that look alike come from different tables or passages of the source.

Assays:
[1] = system: FabZ*, hyperactive FabZ strain (L85P); experiment: microbe, parasite or virus in culture; assay type: cell-based, Escherichia coli; conditions: Escherichia coli, read-out: MIC (μM) FabZ*
[2] = system: wild-type E. coli (K-12 MG1655); experiment: Post-antibiotic effect (PAE) in wild-type E. coli; assay type: cell-based, Escherichia coli; conditions: for PAE (h) 4x, Wild-type: 4xMIC for 1 h; for PAE (h) 4x, Wild-type / PAE (h) 16x, Wild-type: 1:1000 dilution; for PAE (h) 16x, Wild-type: 16xMIC for 1 h; for PAE in wild-type E. coli: MIC multiple not stated or 4x and 16xMIC
Text: FIG. 4. Post-antibiotic effect of the ecLpxC inhibitors on wild-type and FabZ* E. coli. […] PAE data for wild-type E. coli are in panels (a) PT805, (c) PT810 and (e) CHIR-090, and for FabZ* E. coli in (b) PT805, (d) PT810 and (f) CHIR-090.
PAE data for wild-type E. coli are in panels (a) PT805, (c) PT810 and (e) CHIR-090, and for FabZ* E. coli in (b) PT805, (d) PT810 and (f) CHIR-090.

[3] = system: FabZ* E. coli; assay type: cell-based, Escherichia coli; conditions: for PAE (h) 4x, FabZ*: 4xMIC for 1 h; for PAE (h) 4x, FabZ* / PAE (h) 16x, FabZ*: 1:1000 dilution; for PAE (h) 16x, FabZ*: 16xMIC for 1 h; for PAE in FabZ* E. coli: MIC multiple not stated or 1x-16xMIC
Text: FIG. 4. Post-antibiotic effect of the ecLpxC inhibitors on wild-type and FabZ* E. coli.
This included use of an E. coli strain (FabZ*) containing a hyperactive mutant of the fatty acid biosynthesis O-hydroxyacyl-ACP enzyme (FabZ), and determination of PAEs for wild-type E. coli in the presence of sub-MIC concentrations of macrolides.

[4] = system: E. coli strain (K-12, MG1655); experiment: MIC by microbroth dilution, wild-type E. coli; assay type: cell-based, Escherichia coli; conditions: Escherichia coli; wild-type E. coli K-12 MG1655
[5] = system: efflux-pump mutant strain (ΔMexABCDXY) (paEP); experiment: MIC by microbroth dilution, efflux-pump mutant P. aeruginosa; conditions: Pseudomonas aeruginosa, read-out: MIC (μM) (paEP)
Description: Bacterial Strains. […] The efflux-pump deficient P. aeruginosa strain (ΔMexABCDXY), N150, was derived from PAO1.
Minimum Inhibitory Concentration (MIC) Measurements.

[6] = system: P. aeruginosa PAO1; experiment: Post-antibiotic effect (PAE) in P. aeruginosa PAO1; conditions: 37° C.
Description: Post-antibiotic effect of the paLpxC inhibitors on wild-type P. aeruginosa. […] The experimental data points are the mean values from triplicate, independent measurements, and the error bars represent the standard deviation from the mean.
After incubating the plates overnight at 37° C., CFUs were enumerated, and the PAE values were calculated using a standard method where the time for the bacteria to recover 1 log post drug washout compared to the control was determined (FIG. 17, Table 6).
Post-antibiotic Effect (PAE). PAEs were determined using P. aeruginosa PAO1. […] The compound was washed out by diluting the culture 1000-fold into fresh CAMH-II medium, and the regrowth of bacteria was monitored by taking 100 μL aliquots each hour and plating serial dilutions on Muller-Hinton agar plates.

[7] = system: P. aeruginosa PAO1; experiment: Time-kill assays in P. aeruginosa PAO1; conditions: PAO1, 4x, 8x and 16xMIC, CAMH media, 37° C.
Description: Time-kill assays. […] The experimental data points are the mean values from triplicate, independent measurements, and the error bars represent the standard deviation from the mean.
Time-Kill Assays. […] Cultures were shaken at 37° C. for 6 h, and 100 μL aliquots were taken at each 1 h time interval and plated in serial dilutions in a Mueller-Hinton agar plate.

[8] = system: P. aeruginosa PAO1; experiment: MIC by microbroth dilution, P. aeruginosa PAO1; conditions: Pseudomonas aeruginosa, PAO1, read-out: MIC (μM) (PAO1)
[9] = system: wild-type E. coli; experiment: MIC of azithromycin after pre-exposure of wild-type E. coli to 16xMIC inhibitor; assay type: cell-based, Escherichia coli; conditions: for MIC: Escherichia coli
[10] = molecular target: T1, paLpxC (Pseudomonas aeruginosa (strain ATCC 15692 / DSM 22644 / CIP 104116 / JCM 14847 / LMG 12228 / 1C / PRS 101 / PAO1), UniProt P47205); experiment: biochemical; assay type: binding
T1 sequence (P47205 1-299): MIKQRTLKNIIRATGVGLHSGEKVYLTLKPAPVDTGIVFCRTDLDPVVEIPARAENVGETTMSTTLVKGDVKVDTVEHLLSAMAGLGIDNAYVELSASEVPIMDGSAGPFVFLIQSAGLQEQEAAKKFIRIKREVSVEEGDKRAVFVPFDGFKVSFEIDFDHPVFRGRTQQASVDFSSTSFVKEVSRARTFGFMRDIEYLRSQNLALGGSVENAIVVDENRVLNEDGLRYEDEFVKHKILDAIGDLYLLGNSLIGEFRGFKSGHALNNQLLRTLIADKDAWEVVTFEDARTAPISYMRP

[11] = molecular target: T1, paLpxC; experiment: Spin column (Penefsky) residence time assay on paLpxC; assay type: binding; conditions: 37° C.
Description: FIG. 14. Spin-column assay. A spin-column assay was used to quantify the residence time of inhibitors on paLpxC at 37° C. […] Samples were then subjected to size exclusion chromatography at different times using a Spin-Trap G-25 column (800×g for 2 min). […] Preincubated solutions of enzyme (10 μM) and inhibitor (10 or 20 μM) were diluted 200-fold into a solution of PT855 (1 μM) at 37° C. Aliquots of this solution were withdrawn at various times and subjected to centrifugal gel filtration chromatography using PD SpinTrap™ G-25 columns. The fluorescence of the eluate was quantified, and the data were fit to a single exponential equation to obtain koff (FIG. 14, Tables 4 and 5).
Inhibitor Residence Time Measurements using a Spin Column Assay. […] Subsequently, 10 μL of the incubation mixture was diluted into 2 mL of the same buffer containing 1 μM of PT855, and 100 μL of this mixture was then aliquoted at different time points and loaded onto a PD SpinTrap™ G-25 column (Cytiva) that had been equilibrated with buffer prior to sample loading. […] The fluorescence intensities corresponding to loading diluted EI without the fluorescent competitor and loading the competitor alone were measured separately to determine the dynamic range and endpoint of the assay. […] Rates were calculated by fitting the change in fluorescence intensity over time to a one-phase association equation in GraphPad Prism.

CC[C@H]1OC(=O)[C@H](C)[C@@H](O[C@H]2C[C@@](C)(OC)[C@@H](O)[C@H](C)O2)[C@H](C)[C@@H](O[C@@H]2O[C@H](C)C[C@H](N(C)C)[C@H]2O)[C@](C)(O)C[C@@H](C)C(=O)[C@H](C)[C@@H](O)[C@]1(C)O [Erythromycin]
MIC [1]: 6.25 µM (≈ 4.59 µg/mL) | PAE (h) 4x, Wild-type [2]: 0.7 ± 0.1 h | PAE (h) 16x, Wild-type [2]: 1.4 ± 0.4 h | PAE in wild-type E. coli [2]: 0.8 ± 0.05 h and 0.7 to 1.4 h | PAE (h) 4x, FabZ* [3]: 0.8 ± 0.2 h | PAE (h) 16x, FabZ* [3]: 1.5 ± 0.4 h | PAE in FabZ* E. coli [3]: 0.8 ± 0.05 h and 0.7 to 1.4 h | MIC [4]: 50 µM (≈ 36.7 µg/mL)

CC(CCn1ccc(-c2ccccc2)cc1=O)(C(=O)NO)S(C)(=O)=O (racemic) [PT901, N-hydroxy-2-methyl-2-(methylsulfonyl)-4-(2-oxo-4-phenylpyridin-1(2H)-yl)butanamide]
MIC [5]: 0.2 µM (≈ 0.0729 µg/mL) | PAE (h) 4x ([6]; PAO1, 4xMIC for 1 h): 0.7 h and 0.7 ± 0.1 h | PAE (h) 8x ([6]; PAO1, 8xMIC for 1 h): 1.1 ± 0.1 h | PAE (h) 16x ([6]; PAO1, 16xMIC for 1 h): 1.3 ± 0.1 h | reduction of the starting log CFU/mL of the bacterial culture [7]: more than 3 logs | MIC [8]: 3.12 µM (≈ 1.14 µg/mL)

CC[C@H]1OC(=O)[C@H](C)[C@@H](O[C@H]2C[C@@](C)(OC)[C@@H](O)[C@H](C)O2)[C@H](C)[C@@H](O[C@@H]2O[C@H](C)C[C@H](N(C)C)[C@H]2O)[C@](C)(O)C[C@@H](C)CN(C)[C@H](C)[C@@H](O)[C@]1(C)O [azithromycin]
MIC ([9]; bacteria pre-exposed to 16xMIC ecLpxC inhibitor, read-out: MIC of azithromycin after pre-exposure to ecLpxC inhibitor): 3.25 µM | MIC ([9]; no pre-exposure, read-out: MIC of azithromycin, control): 12 µM | MIC of azithromycin after pre-exposure to cefamandole ([9]; bacteria pre-exposed to 16x cefamandole): 6.2 µM | fold decrease of azithromycin MIC after ecLpxC inhibitors ([9]; pre-treatment with 16xMIC ecLpxC inhibitors): 4 fold | fold decrease of azithromycin MIC after cefamandole ([9]; pre-treatment with cefamandole): 2 fold

C=CCn1cc(-c2ccc(-c3ccn(CCC(C)(C(=O)NO)S(C)(=O)=O)c(=O)c3)cc2)nn1 (racemic) [PT907, 4-(4-(4-(1-allyl-1H-1,2,3-triazol-4-yl)phenyl)-2-oxopyridin-1(2H)-yl)-N-hydroxy-2-methyl-2-(methylsulfonyl)butanamide]
MIC [5]: 0.78 µM (≈ 0.368 µg/mL) | Ki ([10]; 37° C., fluorescence competition): 6.1 ± 5.7 pM | tR (min) Fluorescence assay ([10]; 37° C., tR = 1/koff): 82.8 ± 26.0 min | koff ([10]; read-out: Koff (s^−1)): 0.00022 ± 7e-05 s⁻¹ | kon ([10]; read-out: Kon (μM^−1s^−1)): 52 ± 29.5 µM⁻¹ s⁻¹ | tR (min) (Spin column assay) ([11]; direct displacement): 146.5 ± 44.0 min | k (min^−1), spin-column assay ([11]; first-order fit): 0.007 ± 0.002 min⁻¹ | MIC [8]: 12.5 µM (≈ 5.89 µg/mL)

COc1cc(Cc2cnc(N)nc2N)cc(OC)c1OC [Trimethoprim]
MIC [1]: 2.5 µM (≈ 0.726 µg/mL) | PAE (h) 4x, Wild-type [2]: 0 h | PAE (h) 16x, Wild-type [2]: 0 h | PAE in wild-type E. coli [2]: failed to generate a PAE; also recorded: neither cefamandole nor trimethoprim showed a PAE | PAE (h) 4x, FabZ* [3]: 0 h | PAE (h) 16x, FabZ* [3]: 0 h | PAE in FabZ* E. coli [3]: failed to generate a PAE; also recorded: neither cefamandole nor trimethoprim showed a PAE | MIC [4]: 2.5 µM (≈ 0.726 µg/mL)
